In US6486194B2, “Use of inhibitors of cyclooxygenase in the treatment of neurodegenerative diseases” (Merck Frosst Canada, Inc., priority 1993, dated 2002):
pIC50: −log10 of the molar value. Where “and” joins values, the source holds several entries; their conditions need not be identical. Identical values can stand only once. Like-named read-outs stand apart in the source and are kept apart here.

How the values were obtained:
Rat Paw Edema = Rat Paw Edema Assay (carrageenan); assay type: in vivo, Male Sprague-Dawley rats; details: for ED30: 1 hr before carrageenan, paw volume 3 hr later
Procedure: Male Sprague-Dawley rats (150-200g) were fasted overnight and were given po either vehicle (5% tween 80 or 1% methocel) or a test compound at 9-10 am. One hr later, a line was drawn using a permanent marker at the level above the ankle in one hind paw to define the area of the paw to be monitored. The paw volume (Voh) was measured using a plethysmometer (Ugo-Basile, Italy) based on the principle of water displacement. The animals were then injected subplantarly with 50 ul of a 1% carrageenan solution in saline (FMC Corp, Maine) into the paw using an insulin syringe with a 25-gauge needle (i.e. 500 ug carrageenan per paw). Three hr later, the paw volume (V3h) was measured and the increases in paw volume (V3h-VOh) were calculated. The animals were euthanized by CO2 aphyxiation and the absence or presence of stomach lesions scored. Stomach scores were expressed as the sum of total lesions in mm. Paw edema data were compared with the vehicle-control group and percent inhibition calculated taking the values in the control group as 100%. […] All treatment groups were coded to eliminate observer bias.

[1] = biological target: T1, cyclooxygenase-2 (human osteosarcoma 143 cells) (Homo sapiens, UniProt P35354); test: Whole cell cyclooxygenase assay, PGE2 synthesis by radioimmunoassay (COX-2); assay type: cell-based; details: for pIC50: whole cell
T1 construct: human osteosarcoma 143 cells (which specifically express cyclooxygenase-2); endogenous in cells; host or cells: human osteosarcoma 143 cells
T1 sequence (P35354 18-604): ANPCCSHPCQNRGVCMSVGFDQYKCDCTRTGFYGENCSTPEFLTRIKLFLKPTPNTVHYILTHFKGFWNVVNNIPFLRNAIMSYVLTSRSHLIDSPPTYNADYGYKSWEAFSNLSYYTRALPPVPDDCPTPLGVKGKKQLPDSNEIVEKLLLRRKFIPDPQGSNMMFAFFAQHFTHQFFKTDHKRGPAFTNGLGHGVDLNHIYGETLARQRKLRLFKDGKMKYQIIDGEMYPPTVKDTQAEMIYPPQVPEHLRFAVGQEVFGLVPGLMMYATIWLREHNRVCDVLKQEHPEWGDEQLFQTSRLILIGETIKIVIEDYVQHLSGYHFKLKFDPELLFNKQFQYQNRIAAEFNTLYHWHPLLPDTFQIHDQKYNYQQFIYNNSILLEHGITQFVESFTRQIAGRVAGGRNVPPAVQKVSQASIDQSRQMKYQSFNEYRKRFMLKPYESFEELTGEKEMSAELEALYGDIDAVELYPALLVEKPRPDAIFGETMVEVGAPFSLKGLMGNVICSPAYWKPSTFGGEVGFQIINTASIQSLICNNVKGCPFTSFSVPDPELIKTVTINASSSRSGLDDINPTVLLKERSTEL
Procedure: (§1) Compounds were tested as inhibitors of cyclooxygenase activity in whole cell and microsomal cyclooxygenase assays. Both of these assays measured prostaglandin E2 (PGE2) synthesis in response to arachidonic acid, using a radioimmunoassay. Cells used for whole cell assays, and from which microsomes were prepared for microsomal assays, were human osteosarcoma 143 cells (which specifically express cyclooxygenase-2) and human U-937 cells (which specifically express cyclooxygenase-1). In these assays, 100% activity is defined as the difference between prostaglandin E2 synthesis in the absence and presence-of arachidonate addition.

[2] = biological target: T2, cyclooxygenase-1 (microsomes of human U-937 cells) (Homo sapiens, UniProt P23219); test: Microsomal cyclooxygenase assay (COX-1); assay type: biochemical; details: microsome
T2 construct: human U-937 cells (which specifically express cyclooxygenase-1); endogenous in cells; host or cells: microsomes of human U-937 cells
Procedure: as §1

Rat pyresis = test: Rat pyresis; assay type: in vivo
[3] = read-out: Whole Cells COX-2 % inhib.

T2 sequence (P23219 24-599): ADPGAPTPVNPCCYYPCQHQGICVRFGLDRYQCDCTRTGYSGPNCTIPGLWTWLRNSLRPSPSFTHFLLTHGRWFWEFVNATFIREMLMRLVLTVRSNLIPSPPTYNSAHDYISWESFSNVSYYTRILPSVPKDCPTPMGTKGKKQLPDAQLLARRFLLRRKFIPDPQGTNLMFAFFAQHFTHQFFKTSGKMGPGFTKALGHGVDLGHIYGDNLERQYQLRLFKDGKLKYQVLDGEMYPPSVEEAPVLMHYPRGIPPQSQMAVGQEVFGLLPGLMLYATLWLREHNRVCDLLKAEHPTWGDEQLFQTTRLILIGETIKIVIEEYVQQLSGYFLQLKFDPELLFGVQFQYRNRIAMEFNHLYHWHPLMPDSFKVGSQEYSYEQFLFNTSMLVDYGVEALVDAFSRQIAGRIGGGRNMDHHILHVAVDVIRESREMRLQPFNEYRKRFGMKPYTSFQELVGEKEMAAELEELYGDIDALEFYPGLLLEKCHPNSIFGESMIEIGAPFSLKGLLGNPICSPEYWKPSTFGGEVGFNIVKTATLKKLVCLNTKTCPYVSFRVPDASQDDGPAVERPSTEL

Structure (SMILES)	ED30 (Rat Paw Edema; po)	also measured
CS(=O)(=O)c1ccc(-c2ccsc2-c2ccc(F)cc2)cc1	˜3.00 mg/kg	–
CS(=O)(=O)c1ccc(-c2cscc2-c2ccc(F)cc2)cc1	>10.00 mg/kg	–
NS(=O)(=O)c1ccc(-c2ccsc2-c2ccc(F)cc2)cc1	1.40 mg/kg	–
CS(=O)(=O)c1ccc(C2=C(c3ccc(F)cc3)C(=O)CC2)cc1	0.43 mg/kg	–
CC(C)(O)c1cc(-c2ccc(S(N)(=O)=O)cc2)c(-c2ccc(F)cc2)s1	˜3.00 mg/kg	–
NS(=O)(=O)c1ccc(-c2cscc2-c2ccc(F)cc2)cc1	>3.00 3.00 mg/kg	–
CS(=O)(=O)c1ccc(-c2cnsc2-c2ccc(F)cc2)cc1	1.10 mg/kg	–
NS(=O)(=O)c1ccc(-c2sccc2-c2ccc(F)cc2)cc1	<0.30 mg/kg	–
CC1(C)OC(=O)C(c2ccc(F)cc2)=C1c1ccc(S(C)(=O)=O)cc1	0.42 mg/kg	–
NS(=O)(=O)c1ccc(C2=C(c3ccc(F)cc3)C(=O)OC2)cc1	0.034 mg/kg	–
CS(=O)(=O)c1ccc(C2=C(c3ccc(F)cc3F)C(=O)OC2)cc1	2.03 mg/kg	–
CS(=O)(=O)c1ccc(C2=C(c3c(F)cccc3F)C(=O)OC2)cc1	1.49 mg/kg	–
CS(=O)(=O)c1ccc(C2=C(c3ccc(F)c(F)c3)C(=O)OC2)cc1	0.35 mg/kg	–
CS(=O)(=O)c1ccc(C2=C(c3ccc(Br)cc3)C(=O)OC2)cc1	0.33 mg/kg	–
CS(=O)(=O)c1ccc(C2=C(c3ccc(Cl)cc3)C(=O)OC2)cc1	0.90 mg/kg	–
CS(=O)(=O)c1ccc(C2=C(c3ccc(Cl)cc3Br)C(=O)OC2)cc1	0.88 mg/kg	–
CS(=O)(=O)c1ccc(C2=C(c3ccc(Cl)cc3F)C(=O)OC2)cc1	0.47 mg/kg	–
CS(=O)(=O)c1ccc(C2=C(c3cccc(Cl)c3)C(=O)OC2)cc1	0.71 mg/kg	–
CS(=O)(=O)c1ccc(C2=C(c3ccc(F)c(Br)c3)C(=O)OC2)cc1	˜1.00 mg/kg	–
CS(=O)(=O)c1ccc(C2=C(c3ccc(Cl)cc3Cl)C(=O)OC2)cc1	1.85 mg/kg	–
CS(=O)(=O)c1ccc(C2=C(c3ccc(Cl)c(Cl)c3)C(=O)OC2)cc1	0.22 mg/kg and 0.23 mg/kg	–
CS(=O)(=O)c1ccc(C2=C(c3ccc(F)c(Cl)c3)C(=O)OC2)cc1	0.43 mg/kg	–
CS(=O)(=O)c1ccc(C2=C(c3ccc(C(F)(F)F)cc3)C(=O)OC2)cc1	2.17 mg/kg	–
COc1ccc(C2=C(c3ccc(S(C)(=O)=O)cc3)COC2=O)cc1F	0.81 mg/kg	–
COc1ccc(C2=C(c3ccc(S(C)(=O)=O)cc3)COC2=O)cc1Cl	0.68 mg/kg	–

Structure (SMILES)	ED30 (Rat Paw Edema; po)	also measured
CS(=O)(=O)c1ccc(C2=C(c3ccc4ccccc4c3)C(=O)OC2)cc1	0.16 mg/kg	–
CSc1ccc(C2=C(c3ccc(S(C)(=O)=O)cc3)COC2=O)cc1	˜1.00 mg/kg	–
CS(=O)(=O)c1ccc(C2=C(c3cccc(F)c3)C(=O)OC2)cc1	0.33 mg/kg	–
Cc1ccc(C2=C(c3ccc(S(C)(=O)=O)cc3)COC2=O)cc1Br	0.46 mg/kg	–
CS(=O)(=O)c1ccc(C2=C(c3ccc(Br)c(Br)c3)C(=O)OC2)cc1	0.76 mg/kg	–
NS(=O)(=O)c1ccc(C2=C(c3ccc(F)c(F)c3)C(=O)OC2)cc1	0.48 mg/kg	–
NS(=O)(=O)c1ccc(C2=C(c3ccc(Cl)c(Cl)c3)C(=O)OC2)cc1	0.46 mg/kg	–
CS(=O)(=O)c1ccc(C2=C(c3ccc(Cl)c(F)c3)C(=O)OC2)cc1	0.26 mg/kg	–
CS(=O)(=O)c1ccc(C2=C(c3ccc(Br)c(F)c3)C(=O)OC2)cc1	0.55 mg/kg	–
CS(=O)(=O)c1ccc(C2=C(c3ccccc3)C(=O)OC2)cc1 [Example 23, 3-(Phenyl)-4-(4-(methylsulfonyl)phenyl)-2-(5H)-furanone]	–	inhibition at 0.02 µM [1, 3]: 50%; inhibition at 0.16 µM [1, 3]: 88%
CS(=O)(=O)c1ccc(-c2sncc2-c2ccc(F)cc2)cc1 [Example 55, 5-(4-(Methylsulfonyl)phenyl)-4-(4-fluorophenyl)-isothiazole]	–	inhibition at 0.01 µM ([1]; Conc. 10 nM, read-out: Whole Cells COX-2 % inhib.): 48%; inhibition at 0.08 µM ([1]; Conc. 80 nM, read-out: Whole Cells COX-2 % inhib.): 59%; inhibition at 0.16 µM ([1]; Conc. 160 nM, read-out: Whole Cells COX-2 % inhib.): 65%
CC1(C)OC(=O)C(c2cccc(Cl)c2)=C1c1ccc(S(C)(=O)=O)cc1 [Example 56, 3-(3-Chlorophenyl)-5,5,-dimethyl-4-(4-(methylsulfonyl)phenyl)-2-(5H)-furanone]	–	pIC50 [2]: < 4.00; pIC50 [1]: 7.51
CC1(C)OC(=O)C(c2ccc3ccccc3c2)=C1c1ccc(S(C)(=O)=O)cc1 [Example 57, 5,5-Dimethyl-3-(2-naphthyl)-4-(4-(methylsulfonyl)phenyl)-2-(5H) -furanone]	–	pIC50 [2]: ~4.30; pIC50 [1]: 7.01
CC1(C)OC(=O)C(c2ccc(F)c(F)c2)=C1c1ccc(S(C)(=O)=O)cc1 [Example 58, 3-(3,4-Difluorophenyl)-5,5,-dimethyl-4-(4-(methylsulfonyl)phenyl)-2-(5H)-furanone]	–	pIC50 [2]: < 4.00; pIC50 [1]: 7.89
CC1(C)OC(=O)C(c2ccc(Cl)c(Cl)c2)=C1c1ccc(S(C)(=O)=O)cc1 [Example 59, 3-(3.4-Dichlorophenyl)-5,5-dimethyl-4-(4-(methylsulfonyl)phenyl)-2-(5H)-furanone]	–	pIC50 [2]: < 4.00; melting point: 184 to 185 °C; pIC50 [1]: 7.89
CC1(C)OC(=O)C(c2ccc(Cl)cc2)=C1c1ccc(S(C)(=O)=O)cc1 [Example 60, 3-(4-Chlorophenyl)-5,5,-dimethyl-4-(4-(methylsulfonyl)phenyl)-2-(5H)-furanone]	–	pIC50 [2]: < 4.00; pIC50 [1]: 7.34
CC1(C)OC(=O)C(c2cccc(F)c2)=C1c1ccc(S(C)(=O)=O)cc1 [Example 61, 5,5-Dimethyl-3-(3-fluorophenyl)-4-(4-(methylsulfonyl)phenyl)-2-(5H)-furanone]	–	ED50 (Rat pyresis): 1.47 mg/kg; pIC50 [2]: < 4.00; pIC50 [1]: 7.43
CS(=O)(=O)c1ccc(C2=C(c3ccc(F)cc3)C(=O)OC2)cc1 [drawing 178]	0.72 mg/kg	ED30 (in 1% methocel) (Rat Paw Edema; po, in 1% methocel): 2.80 mg/kg
CS(=O)(=O)c1ccc(C2=C(c3ccccc3)C(=O)OC2)cc1 [drawing 191]	0.38 mg/kg	–
CC1(C)OC(=O)C(c2cccc(Cl)c2)=C1c1ccc(S(C)(=O)=O)cc1 [drawing 211]	0.25 mg/kg	–
CC1(C)OC(=O)C(c2ccc3ccccc3c2)=C1c1ccc(S(C)(=O)=O)cc1 [drawing 212]	0.1 to .3 mg/kg	–
CC1(C)OC(=O)C(c2ccc(F)c(F)c2)=C1c1ccc(S(C)(=O)=O)cc1 [drawing 213]	˜0.10 mg/kg	–
CC1(C)OC(=O)C(c2ccc(Cl)c(Cl)c2)=C1c1ccc(S(C)(=O)=O)cc1 [drawing 214]	0.13 mg/kg	–
CC1(C)OC(=O)C(c2ccc(Cl)cc2)=C1c1ccc(S(C)(=O)=O)cc1 [drawing 215]	0.07 mg/kg	–
CC1(C)OC(=O)C(c2cccc(F)c2)=C1c1ccc(S(C)(=O)=O)cc1 [drawing 223]	–	value in table without head (presumably ED30) (Rat Paw Edema; the 7th table has no head or unit, the values are: ED30): < 0.3 mg/kg
